Assay results reported in patent US4383113A, “Agricultural sulfonamides” (E. I. Du Pont de Nemours and Company, priority 1981, dated 1983).

What was measured:
barnyardgrass [1] = experiment: Test A post-emergence; assay type: in vivo, Echinochloa crusgalli; design: key: 0 = no effect, 10 = maximum effect; letter = response symbol
From the text: (§1) The activity of these compounds was discovered in a number of greenhouse and field tests. The ratings are based on a numerical scale extending from 0=no effect, to 10=maximum effect. The accompanying descriptive symbols have the following meanings:
(§2) Seeds of crabgrass (Digitaria spp.), barnyardgrass (Echinochloa crusgalli), wild oats (Avena fatua), cassia (Cassia tora), morningglory (Ipomoea spp.), cocklebur (Xanthium spp.), sorghum, corn, soybean, rice, wheat and nutsedge tubers (Cyperus rotundus) were planted in a growth medium and treated preemergence with a nonphytotoxic solvent solution of the compounds of Table XII. Other batches of seeds and tubers for all of the foregoing weed and crop plants were planted at the same time as controls. The control plantings were untreated; i.e., neither any compound nor any solvent was applied. At the same time, cotton having five leaves (including cotyledonary ones), bush beans with the third trifoliate leaf expanding, crabgrass with two leaves, barnyardgrass with two leaves, wild oats with two leaves, cassia with three leaves (including cotyledonary ones), morningglory with four leaves (including the cotyledonary ones), cocklebur with four leaves (including the cotyledonary ones), sorghum with four leaves, corn with four leaves, soybean with two cotyledonary leaves, rice with three leaves, wheat with one leaf, and nutsedge with three-five leaves were sprayed with a nonphytotoxic solvent solution of the compounds of Table XII. Other groups of all the same weed and crop plants were sprayed with the same nonphytotoxic solvent so as to provide control plants. Preemergence and postemergence treated plants and controls were maintained in a greenhouse for sixteen days, then all treated plants were compared with their respective controls and rated visually for response to treatment.

wild oats [2] = experiment: Test A post-emergence; assay type: in vivo, Avena fatua; design: key: 0 = no effect, 10 = maximum effect; letter = response symbol
From the text: as §1, §2

wheat [3] = experiment: Test A post-emergence; assay type: in vivo; design: key: 0 = no effect, 10 = maximum effect; letter = response symbol
From the text: as §1, §2

morningglory [4] = experiment: Test A post-emergence; assay type: in vivo, Ipomoea spp.; design: key: 0 = no effect, 10 = maximum effect; letter = response symbol; conditions: 0.4 kg/ha
From the text: as §1, §2

cocklebur [5] = experiment: Test A post-emergence; assay type: in vivo, Xanthium spp.; design: key: 0 = no effect, 10 = maximum effect; letter = response symbol; conditions: 0.4 kg/ha
From the text: as §1, §2

nutsedge = experiment: Test A post-emergence; assay type: in vivo, Cyperus rotundus; design: key: 0 = no effect, 10 = maximum effect; letter = response symbol; conditions: 0.4 kg/ha
From the text: as §1, §2

crabgrass = experiment: Test A post-emergence; assay type: in vivo, Digitaria spp.; design: key: 0 = no effect, 10 = maximum effect; letter = response symbol; conditions: 0.4 kg/ha
From the text: as §1, §2

cassia [6] = experiment: Test A post-emergence; assay type: in vivo, Cassia tora; design: key: 0 = no effect, 10 = maximum effect; letter = response symbol; conditions: 0.4 kg/ha
From the text: as §1, §2

corn = experiment: Test A post-emergence; assay type: in vivo; design: key: 0 = no effect, 10 = maximum effect; letter = response symbol; conditions: 0.4 kg/ha
From the text: as §1, §2

sorghum [7] = experiment: Test A post-emergence; assay type: in vivo; design: key: 0 = no effect, 10 = maximum effect; letter = response symbol; conditions: 0.4 kg/ha
From the text: as §1, §2

bush bean = experiment: Test A post-emergence; assay type: in vivo, bush beans; design: key: 0 = no effect, 10 = maximum effect; letter = response symbol; conditions: 0.4 kg/ha
morningglory [8] = experiment: Test A pre-emergence; assay type: in vivo, Ipomoea spp.; design: key: 0 = no effect, 10 = maximum effect; letter = response symbol; conditions: 0.4 kg/ha
From the text: as §1, §2

cocklebur [9] = experiment: Test A pre-emergence; assay type: in vivo, Xanthium spp.; design: key: 0 = no effect, 10 = maximum effect; letter = response symbol; conditions: 0.4 kg/ha
From the text: as §1, §2

barnyardgrass [10] = experiment: Test A pre-emergence; assay type: in vivo, Echinochloa crusgalli; design: key: 0 = no effect, 10 = maximum effect; letter = response symbol; conditions: 0.4 kg/ha
From the text: as §1, §2

wild oats [11] = experiment: Test A pre-emergence; assay type: in vivo, Avena fatua; design: key: 0 = no effect, 10 = maximum effect; letter = response symbol; conditions: 0.4 kg/ha
From the text: as §1, §2

sorghum [12] = experiment: Test A pre-emergence; assay type: in vivo; design: key: 0 = no effect, 10 = maximum effect; letter = response symbol; conditions: 0.4 kg/ha
From the text: as §1, §2

soybean = experiment: Test A pre-emergence; assay type: in vivo; design: key: 0 = no effect, 10 = maximum effect; letter = response symbol; conditions: 0.4 kg/ha
From the text: as §1, §2

wheat [13] = experiment: Test A pre-emergence; assay type: in vivo; design: key: 0 = no effect, 10 = maximum effect; letter = response symbol; conditions: 0.4 kg/ha
From the text: as §1, §2

cassia [14] = experiment: Test A pre-emergence; assay type: in vivo, Cassia tora; design: key: 0 = no effect, 10 = maximum effect; letter = response symbol; conditions: 0.4 kg/ha
From the text: as §1, §2

purple nutsedge = experiment: Test F post-emergence; assay type: in vivo, Cyperus rotundus
From the text: Purple nutsedge tubers (Cyperus rotundus) were planted about 2 cm deep in Fallsington silt loam contained in plastic pots 10 cm in diameter. Five tubers were put in each pot. Compounds of this invention were sprayed dissolved in a non-phytotoxic solvent at a volume rate of 560 l/ha. in four different methods of treatment, i.e., soil surface spray, tuber/soil spray, soil incorporated and post-emergence. For the soil surface spray, the compounds were sprayed on the firmed soil surface immediately after planting. For the tuber/soil spray, the compounds were sprayed on the exposed tubers and subtending soil before the untreated covering soil was added. Soil incorporation treatments were mixed in the covering soil. Post-emergence treatments were sprayed on the nutsedge foliage and surrounding soil surface after the nutsedge had emerged and had reached the height of about 12 cm.
Immediately after spraying the surface spray, tuber/soil spray and soil incorporated treatments were misted with about 0.3 cm of water over a 90 minute period and then placed in the greenhouse. Post-emergence treatments were placed directly into the greenhouse and watered carefully so that treatments would not be washed from the foliage.

COC(=O)c1ccccc1S(=O)(=O)NC(=O)Nc1ncccn1 [drawing 418]
response rating (barnyardgrass [1]; 2 kg/ha): 9C
response rating (wild oats [2]; 2 kg/ha): 2G
response rating (wheat [3]; 2 kg/ha): 5G

CCC(C)OC(=O)c1ccccc1S(=O)(=O)NC(=O)Nc1nc(C)cc(OC)n1 (stereo not drawn) [drawing 424]
response rating (morningglory [4]): 10C
response rating (cocklebur [5]): 9C
response rating (nutsedge): 8G
response rating (crabgrass): 0
response rating (wild oats [2]; 0.4 kg/ha): 8G

CCCCCCCCCCOC(=O)c1ccccc1S(=O)(=O)NC(=O)Nc1nc(C)cc(OC)n1 [drawing 428]
response rating (cassia [6]): 5G
response rating (nutsedge): 7G
response rating (crabgrass): 0
response rating (wild oats [2]; 0.4 kg/ha): 5G
response rating (wheat [3]; 0.4 kg/ha): 3C

COc1cc(OC)nc(NC(=O)NS(=O)(=O)c2ccccc2C(=O)OC2CCCCC2)n1 [drawing 431]
response rating (morningglory [4]): 9C
response rating (cocklebur [5]): 9C
response rating (cassia [6]): 1C
response rating (corn): 7H
response rating (sorghum [7]): 8H
response rating (wheat [3]; 0.4 kg/ha): 1C

COC(=O)c1cc(Cl)ccc1S(=O)(=O)NC(=O)Nc1nc(OC)nc(OC)n1 [drawing 435]
response rating (morningglory [4]): 10C
response rating (cocklebur [5]): 10C
response rating (nutsedge): 10C
response rating (crabgrass): 1C
response rating (barnyardgrass [1]; 0.4 kg/ha): 3G
response rating (wild oats [2]; 0.4 kg/ha): 0
response rating (corn): 9H
response rating (sorghum [7]): 8H
response rating (wheat [3]; 0.4 kg/ha): 0

COc1cc(C)nc(NC(=O)NS(=O)(=O)c2ccccc2C(=O)CCC(C)C)n1 [drawing 449]
response rating (bush bean): 10D
response rating (morningglory [4]): 10C
response rating (barnyardgrass [1]; 0.4 kg/ha): 9C
response rating (corn): 9H

COc1nc(C)nc(NC(=O)NS(=O)(=O)c2ccccc2C(=O)OC(C)Cc2ccccc2)n1 (stereo not drawn) [drawing 457]
response rating (bush bean): 9C
response rating (morningglory [4]): 10C
response rating (cocklebur [5]): 9C
response rating (cassia [6]): 10C
response rating (nutsedge): 7G
response rating (crabgrass): 9C
response rating (barnyardgrass [1]; 0.4 kg/ha): 9C
response rating (corn): 9C

COc1nc(C)nc(NC(=O)NS(=O)(=O)c2ccccc2C(=O)OC(C)CCl)n1 (stereo not drawn) [drawing 459]
response rating (bush bean): 9C
response rating (morningglory [4]): 10C
response rating (cocklebur [5]): 9C
response rating (wild oats [2]; 0.4 kg/ha): 3G
response rating (wheat [3]; 0.4 kg/ha): 2G

COc1nc(C)nc(NC(=O)NS(=O)(=O)c2ccccc2C(=O)OCc2ccc(Cl)cc2)n1 [drawing 460]
response rating (morningglory [4]): 9C
response rating (nutsedge): 0
response rating (wild oats [2]; 0.4 kg/ha): 2C
response rating (wheat [3]; 0.4 kg/ha): 0

COC(=O)c1cc([N+](=O)[O-])ccc1S(=O)(=O)NC(=O)Nc1nc(C)cc(OC)n1 [drawing 462]
response rating (bush bean): 9C
response rating (morningglory [4]): 9C
response rating (cocklebur [5]): 9C
response rating (cassia [6]): 9C
response rating (nutsedge): 9G

COc1cc(OC)nc(NC(=O)NS(=O)(=O)c2ccccc2C(=O)OCCCl)n1 [drawing 487]
response rating (morningglory [8]): 9G
response rating (cocklebur [9]): 9G
response rating (barnyardgrass [10]): 9H
response rating (wild oats [11]): 9G
response rating (sorghum [12]): 9H
response rating (soybean): 9H
response rating (wheat [13]): 9G

COc1cc(C)nc(NC(=O)NS(=O)(=O)c2ccccc2C(=O)OC2CCOC2)n1 (stereo not drawn) [drawing 513]
response rating (morningglory [8]): 9G
response rating (cocklebur [9]): 9G
response rating (cassia [14]): 9G
response rating (barnyardgrass [10]): 9H
response rating (soybean): 9H
response rating (wheat [13]): 9H

COc1cc(C)nc(NC(=O)NS(=O)(=O)c2ccccc2C(=O)OCCOCCOCCCl)n1 [drawing 515]
response rating (morningglory [8]): 9G
response rating (cocklebur [9]): 9G
response rating (cassia [14]): 9C
response rating (barnyardgrass [10]): 9H
response rating (soybean): 9H

COc1cc(C)nc(NC(=O)NS(=O)(=O)c2ccccc2C(=O)NCc2ccccc2)n1 [drawing 531]
response rating (morningglory [8]): 9G
response rating (cocklebur [9]): 8G
response rating (cassia [14]): 9G
response rating (barnyardgrass [10]): 9H
response rating (wild oats [11]): 3C
response rating (soybean): 9H
response rating (wheat [13]): 9H

CNC(=O)c1ccccc1S(=O)(=O)NC(=O)Nc1nc(C)cc(OC)n1 [drawing 533]
response rating (cocklebur [9]): 9G
response rating (cassia [14]): 9G
response rating (soybean): 9H
response rating (wheat [13]): 9H

COc1cc(C)nc(NC(=O)NS(=O)(=O)c2ccccc2C(=O)SC)n1 [drawing 544]
response rating (morningglory [8]): 9G
response rating (cocklebur [9]): 9G
response rating (cassia [14]): 9G
response rating (sorghum [12]): 9H
response rating (soybean): 9H

COC(=O)c1ccccc1S(=O)(=O)NC(=O)Nc1nc(C)cc(C)n1 [drawing 591]
response rating after 4 weeks (purple nutsedge; .008 kg/ha): 9C
response rating after 4 weeks (purple nutsedge; .016 kg/ha): 9C
response rating after 4 weeks (purple nutsedge; .032 kg/ha): 10C
response rating after 4 weeks (purple nutsedge; .064 kg/ha): 10C

COC(=O)c1ccccc1S(=O)(=O)NC(=O)Nc1nc(C)cc(OC)n1 [drawing 592]
response rating after 4 weeks (purple nutsedge; .008 kg/ha): 9C
response rating after 4 weeks (purple nutsedge; .016 kg/ha): 9C
response rating after 4 weeks (purple nutsedge; .032 kg/ha): 10C
response rating after 4 weeks (purple nutsedge; .064 kg/ha): 10C

COC(=O)c1ccccc1S(=O)(=O)NC(=O)Nc1nc(OC)cc(OC)n1 [drawing 593]
response rating after 4 weeks (purple nutsedge; .004 kg/ha): 8C
response rating after 4 weeks (purple nutsedge; .008 kg/ha): 10C
response rating after 4 weeks (purple nutsedge; .016 kg/ha): 10C
response rating after 4 weeks (purple nutsedge; .032 kg/ha): 9C
response rating after 4 weeks (purple nutsedge; .064 kg/ha): 10C

COC(=O)c1ccccc1S(=O)(=O)NC(=O)Nc1nc(C)nc(OC)n1 [drawing 594]
response rating after 4 weeks (purple nutsedge; .004 kg/ha): 0
response rating after 4 weeks (purple nutsedge; .008 kg/ha): 2G
response rating after 4 weeks (purple nutsedge; .016 kg/ha): 2G

COC(=O)c1ccccc1S(=O)(=O)NC(=O)Nc1nc(OC)nc(OC)n1 [drawing 595]
response rating after 4 weeks (purple nutsedge; .004 kg/ha): 0
response rating after 4 weeks (purple nutsedge; .008 kg/ha): 0
response rating after 4 weeks (purple nutsedge; .032 kg/ha): 3G

CCOC(=O)c1ccccc1S(=O)(=O)NC(=O)Nc1nc(OC)cc(OC)n1 [drawing 598]
response rating after 4 weeks (purple nutsedge; .008 kg/ha): 10C
response rating after 4 weeks (purple nutsedge; .032 kg/ha): 10C
response rating after 4 weeks (purple nutsedge; .125 kg/ha): 10C
response rating after 4 weeks (purple nutsedge; .25 kg/ha): 10C

CCCCOC(=O)c1ccccc1S(=O)(=O)NC(=O)Nc1nc(C)cc(OC)n1 [drawing 599]
response rating after 4 weeks (purple nutsedge; .125 kg/ha): 8C

COc1cc(C)nc(NC(=O)NS(=O)(=O)c2ccccc2C(=O)OC(C)C)n1 [drawing 601]
response rating after 4 weeks (purple nutsedge; .008 kg/ha): 10C
response rating after 4 weeks (purple nutsedge; .032 kg/ha): 10C
response rating after 4 weeks (purple nutsedge; .125 kg/ha): 10C
response rating after 4 weeks (purple nutsedge; .25 kg/ha): 10C

COc1cc(OC)nc(NC(=O)NS(=O)(=O)c2ccccc2C(=O)OC(C)C)n1 [drawing 602]
response rating after 4 weeks (purple nutsedge; .008 kg/ha): 10C
response rating after 4 weeks (purple nutsedge; .032 kg/ha): 10C
response rating after 4 weeks (purple nutsedge; .125 kg/ha): 10C
response rating after 4 weeks (purple nutsedge; .25 kg/ha): 10C

COC(=O)c1cc(Cl)ccc1S(=O)(=O)NC(=O)Nc1nc(OC)cc(OC)n1 [drawing 605]
response rating after 4 weeks (purple nutsedge; .008 kg/ha): 10C
response rating after 4 weeks (purple nutsedge; .032 kg/ha): 10C
response rating after 4 weeks (purple nutsedge; .125 kg/ha): 10C
